Reference: patent US9556147B2 (Hoffmann-La Roche Inc., priority 2013, dated 2017)

System: B cell receptor-mediated activation of B cells in human whole blood (CD69 expression)
Assay: cells
Settings: 20 h, read-out: HWB IC50
Procedure: After the incubation the plates were read on a BMG Pherastar Fluorescent plate reader (or equivalent) and used to measure the emission energy from the europium donor fluorophore (620 nm emission) and the FRET (665 nm emission). The negative control well values were averaged to obtain the mean minimum. The positive “no inhibitor” control wells were averaged to obtain the mean maximum. […] The mean IC50 and standard deviation will be derived from duplicate curves (singlet inhibition curves from two independent dilutions) using Microsoft Excel. Inhibition of B Cell Activation in Whole Blood Measured by CD69 Expression
Human whole blood (HWB) is obtained from healthy volunteers, with the following restrictions: 24 hr drug-free, non-smokers. Blood is collected by venipuncture into Vacutainer tubes anticoagulated with sodium heparin. Test compounds are diluted to ten times the desired starting drug concentration in PBS (20×), followed by three-fold serial dilutions in 10% DMSO in PBS to produce a nine point dose-response curve. […] HWB (100 μl) is added to each well, and after mixing the plates are incubated at 37 C, 5% CO2, 100% humidity for 30 minutes. […]
Using appropriate excitation and emission wavelengths for the fluorophores used, data are acquired and percent positive cell values are obtained using Cell Quest Software. Results are initially analyzed by FACS analysis software (Flow Jo).

Row | Compound | IC50 [nM]
1 | CN1CCC[C@H]1c1ccc(Nc2cc3c(n(C)c2=O)CC(O)Cc2c-3cccc2-n2ncc3cc(C(C)(C)C)cc(F)c3c2=O)nc1 (some centres unmarked) [Compound 2] | 49
2 | Cn1c2c(cc(Nc3ccc(C(=O)N4CCOCC4)cn3)c1=O)-c1cccc(-n3ncc4cccc(F)c4c3=O)c1C[C@H](O)C2 [Compound 6] | 4380
